{
  "source": "paper PMC5500234",
  "about": "(Chemistry (Weinheim an der Bergstrasse, Germany), 2016)",
  "target": "LeuT (bacterial leucine transporter) (Aquifex aeolicus, UniProt O67854)",
  "assay": "scintillation proximity assay",
  "assay_type": "binding",
  "details": "labelled compound; room temperature, […] days; DDM or MNA-C12/C13/C14",
  "data": [
    {"smiles": "CC(C)C[C@H](N)C(=O)O", "note": "[[3H]-leucine]", "values": [
      {"measurement": "scintillation proximity assay (SPA), radioligand binding", "value": "measuring the ability to bind [^3H]-leucine via scintillation proximity assay (SPA)"}
    ]}
  ]
}
